Laboratory results published in paper PMC9944927, “Mutant structure of metabolic switch protein in complex with monomeric c-di-GMP reveals a potential mechanism of protein-mediated ligand dimerization” (Scientific Reports, 2023).

Key:
SmbA [1] = molecular target: T1, SmbA (Caulobacter vibrioides, UniProt Q9A5E6); assay: ITC (apparent Kd); AUC sedimentation shift; format: binding
T1 construct: gene CC_2504; SmbAwt, His6
T1 sequence (Q9A5E6 1-296): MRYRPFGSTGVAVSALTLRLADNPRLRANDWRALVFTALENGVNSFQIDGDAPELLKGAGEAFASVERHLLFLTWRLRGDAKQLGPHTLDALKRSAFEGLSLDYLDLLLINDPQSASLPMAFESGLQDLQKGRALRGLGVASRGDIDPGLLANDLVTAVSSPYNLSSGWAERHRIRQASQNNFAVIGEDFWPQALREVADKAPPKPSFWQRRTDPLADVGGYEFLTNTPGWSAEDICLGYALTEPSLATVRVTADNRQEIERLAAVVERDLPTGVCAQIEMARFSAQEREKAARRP

SmbA [2] = molecular target: T2, SmbA (Caulobacter vibrioides, UniProt Q9A5E6, DEL198-215); assay: X-ray crystal structure at […] Å; ITC ([…] stoichiometry); format: binding
T2 construct: gene CC_2504; SmbA∆loop, partial loop 7 deletion (fragment 198–215 deleted), His6
T2 sequence (Q9A5E6 with tags, fused parts or gaps DEL198-215): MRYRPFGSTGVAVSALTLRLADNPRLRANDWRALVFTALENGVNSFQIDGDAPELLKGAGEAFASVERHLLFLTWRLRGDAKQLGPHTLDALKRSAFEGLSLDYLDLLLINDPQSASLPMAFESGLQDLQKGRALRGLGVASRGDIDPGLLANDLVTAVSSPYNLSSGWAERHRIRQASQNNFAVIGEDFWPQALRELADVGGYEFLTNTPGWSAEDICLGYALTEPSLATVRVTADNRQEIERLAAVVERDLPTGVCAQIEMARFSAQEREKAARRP

With `Nc1nc2c(ncn2[C@@H]2O[C@@H]3CO[P@](=O)(O)O[C@H]4[C@@H](O)[C@H](n5cnc6c(=O)[nH]c(N)nc65)O[C@@H]4CO[P@](=O)(O)O[C@H]3[C@H]2O)c(=O)[nH]1` [c-di-GMP] the Kd (SmbA [1]) was 300 nM and the Kd (SmbA [2]) was 1800 nM.
